The text below walks through data of patent US20260209247A1, “Substituted Tricyclic Compounds” (Lupin Limited, priority 2019, published 2026).

Assay [1] concerns the target T1, protein-protein interaction between hSOS1 and hKRASG12C (Homo sapiens, UniProt Q07889).
T1 construct: GST-hSOS1, 564-1049aa expressed and purified in-house
T1 sequence (Q07889 564-1049): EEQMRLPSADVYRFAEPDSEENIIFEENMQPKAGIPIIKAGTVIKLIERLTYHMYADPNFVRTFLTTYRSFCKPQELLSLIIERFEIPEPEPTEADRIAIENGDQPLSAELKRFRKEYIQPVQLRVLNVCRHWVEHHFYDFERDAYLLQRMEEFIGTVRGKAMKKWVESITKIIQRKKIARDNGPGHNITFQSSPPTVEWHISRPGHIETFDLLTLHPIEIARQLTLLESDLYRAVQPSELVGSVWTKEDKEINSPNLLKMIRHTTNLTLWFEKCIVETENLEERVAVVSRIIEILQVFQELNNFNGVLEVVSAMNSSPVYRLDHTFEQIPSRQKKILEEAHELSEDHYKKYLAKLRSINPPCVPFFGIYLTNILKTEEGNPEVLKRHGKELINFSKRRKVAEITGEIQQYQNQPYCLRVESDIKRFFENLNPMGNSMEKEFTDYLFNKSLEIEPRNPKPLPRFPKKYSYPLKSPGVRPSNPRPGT
Put plainly: KRAS-SOS1 interaction assay (HTRF). In kind it is binding. The note with it: GST-hSOS1 564-1049aa, HIS-hKRASG12C, read-out: KRAS-SOS1 Interaction inhibition IC50. A digest of the protocol:
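GST-hSOS1 (564-1049aa) at 10-50 nM working solution pre-incubated with compounds 10 min at 20° C in HEPES pH 7.4 buffer with EDTA, DTT, BSA and Igepal. HIS-hKRASG12C (100-300 nM working solution) added for 30-60 min, then anti-GST-d2/anti-HIS-Tb detection; percent inhibition from the 665/620 nm ratio.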
A general note: TR-FRET usually uses a lanthanide donor and a delayed reading to cut background.

Assay [2] relates to pERK after EGF stimulation in DLD1 cells. Put plainly: ERK phosphorylation assay (alphascreen pERK). In kind it is cell-based. The note with it: Homo sapiens, DLD-1, 2 h compound, 200 ng/ml hEGF for 5 minutes, read-out: ERK phosphorylation inhibition IC50. Put shortly:
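DLD1 cells pretreated with test compounds for 2 h, then stimulated with 200 ng/ml hEGF for 5 min. Lysates assayed by AlphaScreen SureFire for ERK1/2 p-T202/Y204, read after 2 h at 25–28 °C. % inhibition relative to the stimulated-minus-unstimulated vehicle window.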
(In Alpha technology, singlet oxygen from a donor bead excites a nearby acceptor bead.)

Assay [3] concerns the target T2, nucleotide exchange on hKRASG12C mediated by hSOS1 (Homo sapiens, UniProt Q07889).
T2 construct: HIS-hSOS1, 564-1049aa mediated GTP loading onto GST-hKRASG12C; His (N); made in house
T2 sequence (Q07889 564-1049): T1 sequence (Q07889 564-1049)
As to the kind of experiment: Guanine nucleotide exchange assay (GNEA, HTRF). The note with it: HIS-hSOS1 564-1049aa mediated GTP loading onto GST-hKRASG12C 1-169aa, read-out: Guanine nucleotide exchange inhibition IC50. In kind it is biochemical. Put shortly:
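Compounds were pre-incubated 10 min at 20 °C with HIS-hSOS1 (564-1049aa) and EDA-GTP-DY-647P1 (working solution 10-50 nM and 200 nM) in pH 7.4 HEPES with NaCl, MgCl2, DTT, BSA and Igepal. GST-hKRASG12C (1-169aa, 25-125 nM working solution) plus anti-GST-Tb was added for 30-60 min at 20 °C. Percent inhibition came from the HTRF 665/620 nm ratio.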

As usually defined, the IC50 is the concentration needed to halve the response being measured. For `Cc1nc(N[C@H](C)c2cccc(C(F)(F)C(C)(C)O)c2F)c2cc3c(cc2n1)nc(C)c(=O)n3C` [Compound 39, (R)-4-((1-(3-(1,1-Difluoro-2-hydroxy-2-methylpropyl)-2-fluorophenyl)ethyl)amino)-2,6,8-trimethylpyrazino[2,3-g]quinazolin-7(6H)-one], the IC50 was in the range of 1 to 10 nM in assay [1], 1 to 200 nM in assay [2] and 1 to 30 nM in assay [3].

Consider `Cc1nc(N[C@H](C)c2cccc(C(F)(F)C(C)(C)O)c2F)c2cc3c(cc2n1)C(C)(C)CC(=O)N3C` [Compound 42, (R)-4-((1-(3-(1,1-difluoro-2-hydroxy-2-methylpropyl)-2-fluorophenyl)ethyl)amino)-2,6,9,9-tetramethyl-8,9-dihydropyrido[2,3-g]quinazolin-7(6H)-one], for which the values for the IC50 in assay [1], in assay [2] and in assay [3] were 1 to 10 nM, 1 to 200 nM and 1 to 30 nM, respectively.

Consider `Cc1nc(N[C@H](C)c2cccc(C(F)(F)C(C)(C)O)c2F)c2cc3c(cc2n1)OCCN3C` [Compound 45, (R)-1-(3-(1-((2,6-dimethyl-7,8-dihydro-6H-[1,4]oxazino[3,2-g]quinazolin-4-yl)amino)ethyl)-2-fluorophenyl)-1,1-difluoro-2-methylpropan-2-ol], for which the IC50 lay in the range of 1 to 10 nM in assay [1], 1 to 200 nM in assay [2] and 31 to 130 nM in assay [3].

For `Cc1nc(N[C@H](C)c2cccc(C(F)(F)C(C)(C)O)c2F)c2cc3c(c(F)c2n1)OCC(=O)N3C` [Compound 47, (R)-4-((1-(3-(1,1-difluoro-2-hydroxy-2-methylpropyl)-2-fluorophenyl)ethyl)amino)-10-fluoro-2,6-dimethyl-6H-[1,4]oxazino[3,2-g]quinazolin-7(8H)-one], the IC50 lay within 11 to 25 nM in assay [1], 1 to 200 nM in assay [2] and 31 to 130 nM in assay [3].

For `Cc1nc(N[C@H](C)c2cccc(C(F)(F)C(C)(O)CF)c2F)c2cc3c(cc2n1)OC(C)(C)C(=O)N3C` (stereo partly drawn) [Compound 54, (R&S)-4-(((1R)-1-(2-fluoro-3-(1,1,3-trifluoro-2-hydroxy-2-methylpropyl)phenyl)ethyl)amino)-2,6,8,8-tetramethyl-6H-[1,4]oxazino[3,2-g]quinazolin-7(8H)-one], the IC50 in assay [1] is 1 to 10 nM; in assay [2], 1 to 200 nM; in assay [3], 1 to 30 nM.

In the case of `CNCC(C)(O)C(F)(F)c1cccc([C@@H](C)Nc2nc(C)nc3cc4c(cc23)N(C)C(=O)C(C)(C)O4)c1F` (stereo partly drawn) [Compound 55, (R&S)-4-(((1R)-1-(3-(1,1-difluoro-2-hydroxy-2-methyl-3-(methylamino)propyl)-2-fluorophenyl)ethyl)amino)-2,6,8,8-tetramethyl-6H-[1,4]oxazino[3,2-g]quinazolin-7(8H)-one], the IC50 was 1 to 10 nM in assay [1], 1 to 200 nM in assay [2] and 1 to 30 nM in assay [3].

For the compound `Cc1nc(N[C@H](C)c2cccc(C(F)(F)C(C)(C)O)c2F)c2cc3c(cc2n1)N(C)C(=O)C31CCCC1` [Compound 58, (R)-4′-((1-(3-(1,1-difluoro-2-hydroxy-2-methylpropyl)-2-fluorophenyl)ethyl)amino)-2′,8′-dimethylspiro[cyclopentane-1,6′-pyrrolo[3,2-g]quinazolin]-7′(8′H)-one], the IC50 in assay [1] lay within 1 to 10 nM; in assay [2], 1 to 200 nM; in assay [3] it was 1 to 30 nM.

For the compound `Cc1nc(N[C@H](C)c2cccc(C(F)(F)CO)c2F)c2cc3c(cc2n1)N(C)C(=O)C31CCCC1` [Compound 62, (R)-4′-((1-(3-(1,1-difluoro-2-hydroxyethyl)-2-fluorophenyl)ethyl)amino)-2′,8′-dimethylspiro[cyclopentane-1,6′-pyrrolo[3,2-g]quinazolin]-7′(8′H)-one], the IC50 was in the range of 1 to 10 nM in assay [1], 1 to 200 nM in assay [2] and 1 to 30 nM in assay [3].
